The text below walks through data of article PMC4127593, “Novel human D-amino acid oxidase inhibitors stabilize an active-site lid-open conformation” (Bioscience Reports, 2014).

For series [1], the target named is rDAAO (rat DAAO) (Rattus norvegicus, UniProt O35078). Nature of the series: rDAAO inhibition assay, Amplex Red format.
Description: (§1) All enzymatic assays were conducted at room temperature (23–24°C) in 96-well plate format. Dose response data to generate IC50 data were analysed via Prism (Graphpad Software) or by a script executed by Pipeline Pilot (Accelrys).
(§2) For our assay, N-terminal hexaHis (His)-tagged hDAAO (prepared as described previously [32]), HRP (horseradish peroxidase), FAD, and compound inhibitor were incubated for 20–30 min. After that pre-incubation period, D-serine and Amplex Red were added and reaction proceeded for 1 hour. Fluorescent product, caused by hydrogen peroxide-dependent, Amplex Red oxidation during hDAAO-catalysed substrate turnover, was measured on a FlexStation II (Molecular Devices) in endpoint mode with these settings: excitation 530 nm, emission 590 nm, cutoff 590 nm and photomultiplier tube on Low. […] For the counter assay, hDAAO was omitted and 800 nM hydrogen peroxide (Sigma) was included.
The target in series [2] is T1, hDAAO (Homo sapiens, UniProt P14920).
T1 construct: hexaHis (N); made in house
Nature of the series: Jump-dilution assay (reversibility, apparent dissociation rate). It counts as biochemical. The following applies: for koff: jump-dilution.
Description: The assay mixture was similar to that described above for the Amplex Red-based assay system. […] After a 30 min pre-incubation to form inhibited complexes, 195 μl of reaction mixture was added. Compared with the standard assay, 50 mM D-serine was utilized as the hDAAO substrate. […] Immediately after adding the reaction mixture, fluorescent substrate was monitored kinetically by the FlexStation II. Data were fit using the following equation [38] in which Pis the fluorescent product formed, tis the time, vs is the final, steady-state reaction velocity, vi is the initial reaction velocity, and k is the koff: (1) [P]=vst+vi−vs/k(1−e^−kt)

Series [3] addresses T1, hDAAO. Nature of the series: D-serine and FAD saturation experiments (mechanism of inhibition, Ki). Conditions: for Mechanism of inhibition: D-serine saturation at 40 μM FAD, FAD saturation at 50 mM D-serine; for Ki: global fit of D-serine saturation data to equations (3) and (4), mean±S.D. The format is biochemical.
Description: To determine inhibitor mechanism of action (D-serine- or FAD-competition), saturation experiments were performed using the Amplex Red system. Keeping D-serine or FAD constant, concentration of the other substrate was varied, and hDAAO enzymatic product was measured fluorescently as described above; these saturation tests were conducted in the presence of variable amounts of inhibitor. In these experiments, there was no preincubation period, such that hDAAO was exposed to D-serine, FAD and inhibitor simultaneously. […] After a 1 h reaction, product was measured using the FlexStation II in the endpoint mode. Data were plotted and fit with a one site, specific binding equation (Graphpad Prism): (2) y=Vmax×x/KM+x
Equation (2) permitted a determination of Vmax and KM at variable inhibitor concentration for a determination of competitive, uncompetitive or non-competitive profile. For D-serine competitive inhibitors, the same data were fit using the GraphPad Prism ‘Competitive inhibition’ equation to derive a global Ki value: (3) KM,obs=KM(1+[I]Ki) (4) y=Vmax×x/KM,obs+x
For series [4], the target named is T1, hDAAO. Nature of the series: LC–MS-based hDAAO inhibition assay, D-phenylglycine as substrate. The format is biochemical. Conditions: 5 nM His-hDAAO, 5 mM D-phenylglycine, 450 nM FAD; mean±S.D.
Description: as §1
For the LC–MS-based hDAAO inhibition assay, his-hDAAO, FAD and compound inhibitors were incubated for 20–30 min. After that period, D-phenylglycine was added and reaction proceeded for 1 h. […] Following the 1 h enzymatic reaction, an equal volume of 100% (v/v) acetonitrile was added. Quantitation of benzylformic acid concentrations was performed using negative ion liquid chromatography/mass spectrometry/mass spectrometry (LC–MS/MS). A 2 μl aliquot of sample was injected onto an ultra-high performance liquid chromatographic system (UPLC Waters Corp) equipped with an API 5500 QTrap mass spectrometer detector (Applied Biosystems/MDS Sciex) operated in the negative TurboIonSpray® mode. […] The mobile phases used for elution consisted of 1.0 mM ammonium formate with 0.2% (v/v) formic acid in water (A) and 1.0 mM ammonium formate with 0.2% (v/v) formic acid in acetonitrile (B) at a total flow rate of 0.600 ml/min. Wash solvent 1 was 3% formic acid in acetonitrile and wash solvent 2 was 3% formic acid in water. Calibration standards were injected once before and once after the analysis of unknown samples to construct a standard curve. A linear weighted (1/concentration^2) regression analysis of the analyte peak area ratio versus theoretical concentration was used to produce calibration curves from standards.
For series [5], the target named is HRP/hydrogen peroxide detection system (Armoracia rusticana, UniProt P00433). Nature of the series: Counter assay (Amplex Red; hDAAO omitted, hydrogen peroxide included). Conditions: Amplex Red detection system without hDAAO.
Sequence of HRP/hydrogen peroxide detection system (P00433 31-338): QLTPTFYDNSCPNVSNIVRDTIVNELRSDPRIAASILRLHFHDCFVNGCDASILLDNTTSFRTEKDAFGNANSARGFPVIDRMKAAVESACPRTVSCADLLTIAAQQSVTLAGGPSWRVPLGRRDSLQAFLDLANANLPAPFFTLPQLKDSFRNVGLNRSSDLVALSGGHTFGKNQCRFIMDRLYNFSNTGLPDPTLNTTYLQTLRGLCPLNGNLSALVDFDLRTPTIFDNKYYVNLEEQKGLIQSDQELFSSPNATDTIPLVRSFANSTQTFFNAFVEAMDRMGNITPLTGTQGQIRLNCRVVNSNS
Description: as §2
Series [6] concerns the target T2, hDAAO (human D-amino acid oxidase) (Homo sapiens, UniProt P14920).
T2 construct: hexaHis (N); made in house
Nature of the series: hDAAO inhibition assay, Amplex Red format, D-serine as substrate. It counts as biochemical. The following applies: for IC50: 0.73 nM His-hDAAO, 5 mM D-serine, 450 nM FAD, pH 7.4, mean±S.D.; for IC50 values relative to compound 3: in several of the biochemical assays.
Description: as §1, §2

The nature of series [7]: In vivo brain penetration after intraperitoneal dosing. Conditions: mouse, brain and plasma, ip; mice, dosed intraperitoneally; results not shown; read-out: brain:plasma compound ratio. The source says: Multiple groups have pursued the discovery of potent, brain-penetrant, drug-like hDAAO inhibitors for use in treating schizophrenia and other nervous system disorders. Thus, the identification of a novel hDAAO conformation could guide the design of the next generation of hDAAO inhibitors. […] Like all existing high-affinity hDAAO inhibitors, interaction of these compounds with Arg^283 of hDAAO requires a carboxylic acid or other electronegative moiety, a feature that is known to reduce brain penetration. […] Potency gained by optimizing ligand binding in these hDAAO regions could conceivably reduce the need for extensive Arg^283 association, and, thus, could facilitate the creation of novel inhibitors of hDAAO.

[8] abbreviates: 80 μM FAD pre-incubation, 50 mM D-serine, mean±S.D.

Entries after “also recorded” stand apart in the source; their conditions may differ. Like-named read-outs stand apart in the source and are kept apart here.

T1 sequence (P14920 whole entry): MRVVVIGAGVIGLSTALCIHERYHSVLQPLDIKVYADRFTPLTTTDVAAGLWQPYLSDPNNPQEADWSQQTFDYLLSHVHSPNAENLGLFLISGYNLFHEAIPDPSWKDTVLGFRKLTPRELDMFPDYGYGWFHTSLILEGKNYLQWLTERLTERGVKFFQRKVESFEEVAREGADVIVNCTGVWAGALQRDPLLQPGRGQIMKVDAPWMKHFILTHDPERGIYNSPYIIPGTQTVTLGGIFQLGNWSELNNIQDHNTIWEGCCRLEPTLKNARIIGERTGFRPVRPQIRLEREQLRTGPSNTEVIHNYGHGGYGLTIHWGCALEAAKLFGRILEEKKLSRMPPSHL
T2 sequence (P14920 whole entry): as above
Sequence of rDAAO (rat DAAO) (O35078 whole entry): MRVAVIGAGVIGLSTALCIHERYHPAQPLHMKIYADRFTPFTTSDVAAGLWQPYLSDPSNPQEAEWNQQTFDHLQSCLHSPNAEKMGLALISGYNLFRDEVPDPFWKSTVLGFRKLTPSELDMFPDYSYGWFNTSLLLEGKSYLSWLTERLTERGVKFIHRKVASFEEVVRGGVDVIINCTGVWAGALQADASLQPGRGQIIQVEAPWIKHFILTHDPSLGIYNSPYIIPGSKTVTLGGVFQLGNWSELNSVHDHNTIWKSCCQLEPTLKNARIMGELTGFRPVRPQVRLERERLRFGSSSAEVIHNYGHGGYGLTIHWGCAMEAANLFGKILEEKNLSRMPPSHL

Take `O=C(O)CCc1cc2c(-c3ccccc3)cc(=O)oc2cc1O` [Compound 2, 3-(7-hydroxy-2-oxo-4-phenyl-2H-chromen-6-yl)propanoic acid]: the figures for the IC50 in series [1], in series [4] and in series [6] were 4000 ± 1400 nM, 230 ± 180 nM and 37 ± 14 nM, respectively. Also, the “hDAAO inhibition after dilution” value in series [2] (5 nM compound, 50 mM D-serine recovery conditions) is reported as “no significant inhibition”. In series [2] (200 nM then 5 nM jump dilution), the reversibility of inhibition result is listed as “reversible inhibition”. The koff in series [2] (setting [8]) is reported as 0.12 ± 0.02 (8) per min. In addition, the Mechanism of inhibition result in series [3] was “D-serine competitive, FAD uncompetitive”. The Ki in series [3] was determined as 7 ± 1.4 nM. The “inhibition in the counter assay” value in series [5] was “did not display inhibition”. In series [6] (200 nM compound), this molecule showed an inhibition at 0.2 µM above 80%. In addition, the Kp in series [7] was below 0.05.

For the molecule `Cc1cc(=O)oc2cc(O)c(CCC(=O)O)cc12` [Compound 4], in series [6], half-maximal inhibition (IC50) required 18000 nM. In series [6] (relative to compound 2), the “hDAAO inhibitory potency weaker than compound 2” value is “approximately 500 fold”.

`O=c1cc(-c2ccccc2)c2cc(CCc3cc(O)c(=O)[nH]n3)c(O)cc2o1` [Compound 3, 4-hydroxy-6-(2-(7-hydroxy-2-oxo-4-phenyl-2H-chromen-6-yl)ethyl)pyridazin-3(2H)-one]: the IC50 in series [1] stood at 47 ± 16 nM; in series [4], 110 ± 20 nM; in series [6] it was 20 ± 5 nM. For the same molecule, in series [2] (from koff), the dissociative half-life is around 1 h. The results for the koff in series [2] (setting [8]) and in series [2] (read-out: off-rate (koff) (converted)) were 0.015 ± 0.03 (3) per min and 0.00025 s⁻¹, respectively. For the same molecule, the Mechanism of inhibition result in series [3] is “D-serine competitive, FAD uncompetitive”. Further, the Ki in series [3] was below 10 nM. Further, in series [6] (relative to compound 2), the “more potent as hDAAO inhibitor than compound 2” value is listed as “approximately 2 fold”. Moreover, the Kp in series [7] was below 0.05.

Consider `O=C(O)c1cc2occc2[nH]1` [Compound 1, 4H-furo[3,2-b]pyrrole-5-carboxylic acid, reference compound], for which the IC50 in series [1] worked out at 87 ± 11 nM. In addition, in series [5], the “inhibition in the counter assay” value is “did not display inhibition”.

As to `O=c1[nH]nc(CCc2ccc(O)cc2O)cc1O` [Compound 5, 6-(2,4-dihydroxyphenethyl)-4-hydroxypyridazin-3(2H)-one], the results for the IC50 in series [1], in series [4] and in series [6] were 130 nM, 13 nM and 54 ± 10 nM, respectively. In addition, the “IC50 values relative to compound 3” value in series [6] was 5–10 fold.

With `COc1ccc(CCc2cc(O)c(=O)[nH]n2)c(OC)c1` [Compound 6, 6-(2,4-dimethoxyphenethyl)-4-hydroxypyridazin-3(2H)-one], the values for the IC50 in series [1], in series [4] and in series [6] were 83 ± 7 nM, 24 nM and 7.2 ± 1 nM, respectively. Further, in series [6], the “IC50 values relative to compound 3” value is given as 5–10 fold.

Turning to `Nc1ncnc2c1ncn2[C@@H]1O[C@H](COP(=O)(O)OP(=O)(O)O)[C@@H](O)[C@H]1O` [ADP, reference compound], the Mechanism of inhibition result in series [3] was “FAD-competitive inhibitor of hDAAO; also recorded: D-serine mixed competition, FAD competitive”. The same molecule returned an IC50 in series [6] of 580000 ± 80000 nM.

For orientation: IC50 means the midpoint of a concentration-inhibition curve. Usually Ki stands for the equilibrium dissociation constant of an inhibitor or competing ligand from its target. A lower Ki goes with a stronger hold on the target. One may read the inhibition as the relative decrease from the control value, in per cent. Low values mean a response near the control, high ones a response far below the control.
